Measurements: PubChem BioAssay AID1845194 (Molecular Pharmacology Branch, DTP, NCI, 2023)

System: 287954-098-R-J1 tumor spheroid viability
Assay: Anticancer human tumor 287954-098-R-J1 patient-derived Ewing sarcoma cell line growth inhibition
Settings: spheroids with HUVEC and MSC; for IC50: curve of first compound; for viability, T/C: stronger effect = lower value
Summary of the method: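 Complex spheroids of malignant cells with endothelial cells and mesenchymal stem cells; agents alone or combined, from near clinical Cmax (or 10 microM if unknown) down in half-log steps, 0.25% DMSO final.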

[1] = second compound 0.003 µM, first compound 0.0316 µM
[2] = second compound 0.003 µM, first compound 0.1 µM
[3] = second compound 0.003 µM, first compound 0.316 µM
[4] = second compound 0.003 µM, first compound 1 µM
[5] = second compound 0.003 µM, first compound 3.16 µM
[6] = second compound 0.003 µM, first compound 10 µM
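Also: spheroids exposed to compound for 7 days before viability readout.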
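For viability, T/C in this document: luminescent signal taken as surrogate of viable cell content; 100% = DMSO vehicle control viability and lower means growth inhibition.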

With [2H]c1nc(C)nc([2H])c1-c1cc(NC[C@@H](C)c2cccc3c(C(=O)NC)ccnc23)ncn1 + Cn1nnc2c(C(N)=O)ncn2c1=O the IC50 (second compound 1 µM) was > 10000 nM, the IC50 (second compound 3.16 µM) was > 10000 nM and the IC50 (second compound 10 µM) was > 10000 nM. The IC50 (second compound 31.6 µM) was > 10000 nM, the IC50 (second compound 100 µM) was > 10000 nM and the viability, T/C (second compound 1 µM, first compound 0.0316 µM) was 104%. For the same molecule, the viability, T/C (second compound 1 µM, first compound 0.1 µM) was 103%, the viability, T/C (second compound 1 µM, first compound 0.316 µM) was 106% and the viability, T/C (second compound 1 µM, first compound 1 µM) was 97.6%. For the same molecule, the viability, T/C (second compound 1 µM, first compound 3.16 µM) was 99.5%, the viability, T/C (second compound 1 µM, first compound 10 µM) was 101% and the viability, T/C (second compound 3.16 µM, first compound 0.0316 µM) was 106%. It also gave a viability, T/C (second compound 3.16 µM, first compound 0.1 µM) of 93.9%, a viability, T/C (second compound 3.16 µM, first compound 0.316 µM) of 99.3% and a viability, T/C (second compound 3.16 µM, first compound 1 µM) of 106%. It also gave a viability, T/C (second compound 3.16 µM, first compound 3.16 µM) of 107%, a viability, T/C (second compound 3.16 µM, first compound 10 µM) of 99.3% and a viability, T/C (second compound 10 µM, first compound 0.0316 µM) of 101%. The viability, T/C (second compound 10 µM, first compound 0.1 µM) was 100%, the viability, T/C (second compound 10 µM, first compound 0.316 µM) was 99.7% and the viability, T/C (second compound 10 µM, first compound 1 µM) was 104%. The viability, T/C (second compound 10 µM, first compound 3.16 µM) was 103%, the viability, T/C (second compound 10 µM, first compound 10 µM) was 105% and the viability, T/C (second compound 31.6 µM, first compound 0.0316 µM) was 106%. For the same molecule, the viability, T/C (second compound 31.6 µM, first compound 0.1 µM) was 103%, the viability, T/C (second compound 31.6 µM, first compound 0.316 µM) was 102% and the viability, T/C (second compound 31.6 µM, first compound 1 µM) was 103%. The viability, T/C (second compound 31.6 µM, first compound 3.16 µM) was 98.8%, the viability, T/C (second compound 31.6 µM, first compound 10 µM) was 106% and the viability, T/C (second compound 100 µM, first compound 0.0316 µM) was 99.7%. The viability, T/C (second compound 100 µM, first compound 0.1 µM) was 103%, the viability, T/C (second compound 100 µM, first compound 0.316 µM) was 97.7% and the viability, T/C (second compound 100 µM, first compound 1 µM) was 98.2%. It also gave a viability, T/C (second compound 100 µM, first compound 3.16 µM) of 97.6% and a viability, T/C (second compound 100 µM, first compound 10 µM) of 94.4%.

With COc1cc(C)[nH]c(=O)c1CN1CCc2c(Cl)cc(C(OC)C3COC3)c(Cl)c2C1=O (stereo not given) + CC[C@@]1(O)C(=O)OCc2c1cc1n(c2=O)Cc2cc3c(CN(C)C)c(O)ccc3nc2-1 the IC50 (second compound 0.003 µM) was > 10000 nM, the IC50 (second compound 0.00949 µM) was > 10000 nM and the IC50 (second compound 0.03 µM) was 117 nM. For the same molecule, the IC50 (second compound 0.0949 µM) was < 31.6 nM, the IC50 (second compound 0.3 µM) was < 31.6 nM and the viability, T/C [1] was 94.9%. It also gave a viability, T/C [2] of 94.7%, a viability, T/C [3] of 99.9% and a viability, T/C [4] of 95.5%. It also gave a viability, T/C [5] of 88%, a viability, T/C [6] of 93% and a viability, T/C (second compound 0.00949 µM, first compound 0.0316 µM) of 108%. It also gave a viability, T/C (second compound 0.00949 µM, first compound 0.1 µM) of 99.6%, a viability, T/C (second compound 0.00949 µM, first compound 0.316 µM) of 92.3% and a viability, T/C (second compound 0.00949 µM, first compound 1 µM) of 89.1%. It also gave a viability, T/C (second compound 0.00949 µM, first compound 3.16 µM) of 95.1%, a viability, T/C (second compound 0.00949 µM, first compound 10 µM) of 92.8% and a viability, T/C (second compound 0.03 µM, first compound 0.0316 µM) of 63.6%. For the same molecule, the viability, T/C (second compound 0.03 µM, first compound 0.1 µM) was 36.6%, the viability, T/C (second compound 0.03 µM, first compound 0.316 µM) was 50.9% and the viability, T/C (second compound 0.03 µM, first compound 1 µM) was 36.4%. For the same molecule, the viability, T/C (second compound 0.03 µM, first compound 3.16 µM) was 28%, the viability, T/C (second compound 0.03 µM, first compound 10 µM) was 2.56% and the viability, T/C (second compound 0.0949 µM, first compound 0.0316 µM) was 1.65%. The viability, T/C (second compound 0.0949 µM, first compound 0.1 µM) was 1.55%, the viability, T/C (second compound 0.0949 µM, first compound 0.316 µM) was 1.34% and the viability, T/C (second compound 0.0949 µM, first compound 1 µM) was 1.37%. It also gave a viability, T/C (second compound 0.0949 µM, first compound 3.16 µM) of 1.24%, a viability, T/C (second compound 0.0949 µM, first compound 10 µM) of 1.63% and a viability, T/C (second compound 0.3 µM, first compound 0.0316 µM) of 1.38%. For the same molecule, the viability, T/C (second compound 0.3 µM, first compound 0.1 µM) was 1.47%, the viability, T/C (second compound 0.3 µM, first compound 0.316 µM) was 1.35% and the viability, T/C (second compound 0.3 µM, first compound 1 µM) was 1.69%. It also gave a viability, T/C (second compound 0.3 µM, first compound 3.16 µM) of 1.33% and a viability, T/C (second compound 0.3 µM, first compound 10 µM) of 1.57%.

In the case of CC1COCCN1c1cc(-c2ccnn2C)c2ccnc(-c3ccn[nH]3)c2n1 (stereo not given) + COc1cc2c(cc1O)CCNC21CSC2c3c(OC(C)=O)c(C)c4c(c3C(COC1=O)N1C(O)C3Cc5cc(C)c(OC)c(O)c5C(C21)N3C)OCO4, the IC50 (second compound 30 pM) is reported as 74.6 nM, the IC50 (second compound 94.9 pM) is reported as 48.3 nM and the IC50 (second compound 0.0003 µM) is reported as < 31.6 nM. The IC50 (second compound 0.000949 µM) was < 31.6 nM, the IC50 (second compound 0.003 µM) was < 31.6 nM and the viability, T/C (second compound 30 pM, first compound 0.0316 µM) was 111%. For the same molecule, the viability, T/C (second compound 30 pM, first compound 0.1 µM) was 28.8%, the viability, T/C (second compound 30 pM, first compound 0.316 µM) was 7.3% and the viability, T/C (second compound 30 pM, first compound 1 µM) was 4.7%. It also gave a viability, T/C (second compound 30 pM, first compound 3.16 µM) of 1.8%, a viability, T/C (second compound 30 pM, first compound 10 µM) of 2.96% and a viability, T/C (second compound 94.9 pM, first compound 0.0316 µM) of 73.7%. It also gave a viability, T/C (second compound 94.9 pM, first compound 0.1 µM) of 9.38%, a viability, T/C (second compound 94.9 pM, first compound 0.316 µM) of 3.08% and a viability, T/C (second compound 94.9 pM, first compound 1 µM) of 1.84%. For the same molecule, the viability, T/C (second compound 94.9 pM, first compound 3.16 µM) was 1.08%, the viability, T/C (second compound 94.9 pM, first compound 10 µM) was 2.57% and the viability, T/C (second compound 0.0003 µM, first compound 0.0316 µM) was 2.38%. The viability, T/C (second compound 0.0003 µM, first compound 0.1 µM) was 1.69%, the viability, T/C (second compound 0.0003 µM, first compound 0.316 µM) was 1.1% and the viability, T/C (second compound 0.0003 µM, first compound 1 µM) was 0.7%. The viability, T/C (second compound 0.0003 µM, first compound 3.16 µM) was 0.69%, the viability, T/C (second compound 0.0003 µM, first compound 10 µM) was 0.94% and the viability, T/C (second compound 0.000949 µM, first compound 0.0316 µM) was 0.28%. For the same molecule, the viability, T/C (second compound 0.000949 µM, first compound 0.1 µM) was 0.34%, the viability, T/C (second compound 0.000949 µM, first compound 0.316 µM) was 0.31% and the viability, T/C (second compound 0.000949 µM, first compound 1 µM) was 0.09%. It also gave a viability, T/C (second compound 0.000949 µM, first compound 3.16 µM) of 0.03%, a viability, T/C (second compound 0.000949 µM, first compound 10 µM) of 0.13% and a viability, T/C [1] of 0.19%. It also gave a viability, T/C [2] of 0.19%, a viability, T/C [3] of 0.14% and a viability, T/C [4] of 0.12%. It also gave a viability, T/C [5] of 0.11% and a viability, T/C [6] of 0.22%.
